We go through eight compounds from US10829742B2, “Production of xylitol from glucose by a recombinant strain” (ROQUETTE FRERES, priority 2014, dated 2020).

Where two headings read alike, the source gives them in different places.

Assay [1] concerns NADPH-specific D-ketopentose-oxidoreductase. Put plainly: NADPH-specific D-ketopentose-oxidoreductase kinetic parameters. The format is biochemical, P. ohmeri ATCC 20209. To be noted: NADP^+ added in excess, in vitro. The source says:
As an illustration of its performances, the following tables indicate the enzyme activities involved in the arabitol metabolic pathway of Pichia ohmeri (Sophie […] Thesis, 1992) The Michaelis-Menten constants highlight the affinities of the NADH and NADPH-D-ketopentose-oxidoreductases for each substrate and the corresponding maximum velocities. [table] The Haldane relationship predicts in vivo enzyme kinetic behaviors. The inhibitory effect of NADP^+ on NADPH-specific D-ketopentose-oxidoreductase has been determined in vitro. The activity is 80% less when NADP^+ is added in excess.

The test system of assay [2] is NADH-specific D-ketopentose-oxidoreductase. The conditions noted are these: crude extract; cited from earlier work.
Assay [3] has as its system NADPH-specific D-ketopentose-oxidoreductase. The conditions noted are these: crude extract; cited from earlier work.
Another assay has as its system Transketolase. The conditions noted are these: crude extract, cited from earlier work.
For the next assay, the system named is Acid phosphatase. The conditions noted are these: crude extract; cited from earlier work.
The test system of assay [4] is D-Ribulose-5-P 3-epimerase. To be noted: crude extract; cited from earlier work.
Assay [5] has as its system D-Ribose-5-P keto-isomerase. The conditions noted are these: crude extract; cited from earlier work.

Regarding `NC(=O)c1ccc[n+]([C@@H]2O[C@H](COP(=O)([O-])OP(=O)(O)OC[C@H]3O[C@@H](n4cnc5c(N)ncnc54)[C@H](OP(=O)(O)O)[C@@H]3O)[C@@H](O)[C@H]2O)c1` [NADP^+], the “inhibitory effect: activity less” value in assay [1] stood at 80%.
What is called Km is the substrate concentration at which the rate is half of its maximum. In the case of `O=C(CO)[C@H](O)[C@H](O)CO` [D-Ribulose], the Km in assay [2] was 90 mM; in assay [3] it was 72 mM. Further, the VM in assay [2] is 1 U/mg; in assay [3], 3.4 U/mg.
`OC[C@@H](O)C(O)[C@H](O)CO` [D-Arabitol]: the VM in assay [3] is 0.8 U/mg.
On to `O=C(CO)[C@@H](O)[C@H](O)COP(=O)(O)O` [D-Xylulose-5-P], for which the Michaelis-Menten constant (Km) was 0.2 mM in the assay on Transketolase (Transketolase (D-ribose-5-P)), 0.6 mM with Transketolase (Transketolase (Erythrose-4-P)), 16 mM in the assay with Acid phosphatase and 6.6 mM in assay [4]. In addition, the VM with Transketolase (Transketolase (D-ribose-5-P)) is on record as 0.9 U/mg; with Transketolase (Transketolase (Erythrose-4-P)) it was 1.45 U/mg; in the assay with Acid phosphatase, 0.11 U/mg; in assay [4] it was 0.7 U/mg.
For the compound `O=C(CO)[C@H](O)[C@H](O)COP(=O)(O)O` [D-Ribulose-5-P], the Km is 4.3 mM in the assay with Acid phosphatase, 6.3 mM in assay [4] and 0.35 mM in assay [5]. In addition, the VM in the assay with Acid phosphatase is on record as 0.65 U/mg; in assay [4], 3 U/mg; in assay [5], 1.8 U/mg.
For `O=C(CO)[C@@H](O)[C@H](O)CO` [D-Xylulose], in assay [2], the Km is 5 mM and the VM was 0.6 U/mg. For the same compound, in assay [3], the VM is listed as 1.5 U/mg.
In the case of `OC[C@@H](O)[C@@H](O)[C@@H](O)CO` [Ribitol], in assay [2], the Km is 16 mM and the VM was 0.16 U/mg.
As to `OC[C@@H](O)[C@H](O)[C@@H](O)CO` [Xylitol], in assay [2], the Km is 7 mM and the VM is 0.2 U/mg. In assay [3], the VM is reported as 0.15 U/mg.
